Experimental data: patent US11492636B2, “Modified bialaphos resistance acetyltransferase compositions and uses thereof” (Whitehead Institute for Biomedical Research, priority 2016, dated 2022)
“And” between values parts separate entries of the source, which are not always exact repeats. Identical values can stand only once.

Target: T1, BAR (Streptomyces hygroscopicus, UniProt P16426)
T1 construct: made in house; host or cells: E. coli BL21(DE3)
Assay: In vitro enzyme kinetic assays of recombinant BAR against native and non-native substrates
Format: biochemical
Details: for in vitro substrate of BAR (N-acetyltransferase activity): recombinant BAR, up to 8.4 mM substrate; for KM values of BAR against aminoadipate and tryptophan (estimated): substrates reached solubility limit before saturation
Description: The BAR coding sequence was amplified by PCR (KaPa HiFi HotStart polymerase; KaPa Biosystems) from genomic DNA extracted from homozygous plants of the SAIL line SAIL_1165_B02 using primers SAIL_BAR_F_pPROEX and SAIL_BAR_R_pPROEX (see Table 3) and then cloned into pProEX Hta (Invitrogen) via EcoRI and HindIII resulting in a 6×His-BAR fusion construct. 6×His-BAR was expressed in E. coli BL21(DE3) grown in Luria-Bertani medium. At an optical density at 600 nm of 0.6, protein expression was induced with 1.0 mM isopropylthio-β-galactoside (IPTG), and cells were grown at 37° C. for 2.5 h. Cells from a 200 mL culture were harvested by centrifugation and resuspended in 8 mL binding buffer (20 mM HEPES-KOH pH 7.4, 0.5 M NaCl, 10% (v/v) glycerol, 20 mM imidazole) supplemented with 3 U mL^−1 DNase (Promega), 2 mM MgCl2 and 1/10 of a tablet containing a protease inhibitor cocktail (Complete; Roche Applied Science). Cell lysis was performed by use of a high-pressure cell breaker (Cell Disruption System; Constant Systems) at a pressure of 150 MPa. All the following steps were carried out at 4° C. The lysate was centrifuged (16,000 g, 20 min) and a 50% (v/v) slurry of Ni^2+-ion charged agarose beads (Ni Sepharose 6 Fast Flow; GE Healthcare) in binding buffer was added to the supernatant (0.25 mL 50% slurry per mL of supernatant). The mix was incubated for 1 h with slight shaking and then loaded on a Poly-Prep® chromatography column (0.8×4 cm; Bio-Rad). The beads were washed with 10 mL of binding buffer and 3 mL of wash buffer (20 mM HEPES-KOH pH 7.4, 0.5 M NaCl, 10% (v/v) glycerol, 40 mM imidazole) by gravity flow before elution with 3 mL of elution buffer (20 mM HEPES-KOH pH 7.4, 0.5 M NaCl, 10% (v/v) glycerol, 500 mM imidazole). The buffer was exchanged with storage buffer (20 mM HEPES-KOH pH 7.4, 0.5 M NaCl, 10% (v/v) glycerol, 1 mM dithiothreitol) using an ultra-centrifugal filter (MWCO 10,000; Vivaspin 6, Sartorius Stedim Biotech). The purity of the protein preparation was assessed by SDS-PAGE and the concentration was determined by using a NanoDrop 2000 UV-VIS spectrometer (Thermo Scientific).
Enzyme assays were carried out in 10 mM HEPES-KOH (pH 7.4), 20 mM MgCl2, and 2 mM acetyl-CoA (Sigma-Aldrich; final volume 25 μl). Before determining the kinetics of BAR with different substrates, time-dependent activity of the purified protein was tested at substrate concentrations of 200 μM L-phosphinothricin (glufosinate ammonium, considered as a 1:1 mixture of L- and D-enantiomers; Sigma-Aldrich) or 400 μM (L-aminoadipate and L-tryptophan; Sigma-Aldrich). Reactions were initiated by the addition of purified BAR at 0.03 μM (assays with L-phosphinothricin) or 20 μM (assays with aminoadipate or tryptophan) and incubated at 25° C. for the indicated times (FIGS. 8A-8D). Reactions were stopped by the addition of three volumes of methanol supplemented with 0.5% (v/v) formic acid. Likewise, substrate concentration-dependence was determined by incubating assays for 7.5 min (assays with L-phosphinothricin) or 2 h (assays with aminoadipate or tryptophan; FIG. 3). Control assays (FIG. 3B) were performed with aminoadipate and tryptophan at 8.4 mM, but in the absence of BAR. In addition, D-tryptophan (Sigma-Aldrich) was tested as potential substrate at 8.4 mM (FIG. 3B).
In vitro assays with aminoadipate and tryptophan as substrate were analyzed by LC-MS as described above. In vitro assays with L-phosphinothricin were analyzed by LC-MS as described above, but using a normal-phase chromatography system as follows: an 150 mm amide column (ACQUITY UPLC™ BEH amide, 1.7 μm, 2.1×150 mm, Waters) was developed using LC-MS solvents (Chemie Brunschwig) with a gradient (flow rate of 0.4 mL min^−1) of solvent B (acetonitrile with 0.1% (v/v) formic acid) in solvent A (water with 0.1% (v/v) formic acid) as follows (all (v/v)): 95% for 0.5 min, 95% to 30% in 12 min, 30% for 2 min, 30% to 95% in 1 min and 95% for 5 min. […]

T1 sequence (P16426 whole entry): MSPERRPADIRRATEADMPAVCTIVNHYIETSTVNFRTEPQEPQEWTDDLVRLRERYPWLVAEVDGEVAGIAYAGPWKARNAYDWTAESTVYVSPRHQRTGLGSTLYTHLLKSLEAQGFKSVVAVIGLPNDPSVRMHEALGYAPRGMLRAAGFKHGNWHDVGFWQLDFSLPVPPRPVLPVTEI

SMILES | Km (N-acetylation by recombinant BAR, Michaelis-Menten kinetics, read-out: apparent KM) | catalytic activity of BAR toward aminoadipate compared with tryptophan (in vitro) | in vitro substrate of BAR (N-acetyltransferase activity) | KM values of BAR against aminoadipate and tryptophan (estimated)
CP(=O)(O)CC[C@H](N)C(=O)O [phosphinothricin, reference compound] | ~39 µM and 39 µM | – | – | –
NC(CCCC(=O)O)C(=O)O [aminoadipate, L-aminoadipate] | – | relatively higher catalytic activity | in vitro substrates of BAR | at least in the millimolar range
N[C@@H](Cc1c[nH]c2ccccc12)C(=O)O [tryptophan, L-tryptophan] | – | – | in vitro substrates of BAR | at least in the millimolar range
